Test systems include NCI/ADR-RES ovarian; M14 melanoma; TK-10 renal; HCT-116 colon; NCI-H460 lung; SNB-19 CNS; SR leukemia; SF-295 CNS.
Holding throughout (test): NCI-60 cell line screen, 48 h

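Results reflect a 48-hour exposure of cells in 96-well plates to compound at five concentrations. GI50 marks 50% less growth. TGI is the concentration that stops growth completely.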

`CC(C(N)=O)N(C)C(=O)c1cnc2ccccc2c1` (stereo not drawn): the TGI in the assay on NCI/ADR-RES ovarian, in the assay on M14 melanoma, in the assay on TK-10 renal, with HCT-116 colon, in the assay with NCI-H460 lung and with SNB-19 CNS was above 100 µM throughout. For the same compound, the TGI with SR leukemia and with SF-295 CNS was above 100 µM each time.

As for `NC(=O)c1ccc(N(C(N)=O)c2c(F)cccc2F)nc1-c1ccc(F)cc1F`, the GI50 with NCI/ADR-RES ovarian, with M14 melanoma, with TK-10 renal, in the assay with HCT-116 colon, with NCI-H460 lung and in the assay on SNB-19 CNS was above 100 µM each time. For the same compound, the GI50 in the assay with SR leukemia and in the assay on SF-295 CNS was above 100 µM in each case. For the same compound, the TGI with NCI/ADR-RES ovarian, in the assay on M14 melanoma, in the assay on TK-10 renal, with HCT-116 colon, in the assay on NCI-H460 lung and in the assay with SNB-19 CNS was above 100 µM each time. Moreover, the TGI in the assay with SR leukemia and with SF-295 CNS was above 100 µM throughout.

Regarding `C=CC(C)(O)CC/C=C(\CO)C(=O)OC1C(C)OC(O[C@](C)(C=C)CC/C=C(\CO)C(=O)O[C@H]2C[C@@]3(C(=O)OC4OC(CO)C(O)C(O)C4OC4OC(C)C(OC5OC(CO)C(O)C5O)C(OC5OC(CO)C(O)C(O)C5O)C4O)C(CC2(C)C)C2=CCC4[C@@]5(C)CC[C@H](OC6OC(COC7OC(C)C(O)C(O)C7OC7OCC(O)C(O)C7O)C(O)C(O)C6NC(C)=O)C(C)(C)C5CC[C@@]4(C)[C@]2(C)C[C@H]3O)C(O)C1O` (stereo partly drawn), the GI50 with NCI/ADR-RES ovarian was 2.68 µM; in the assay with M14 melanoma, 0.62 µM; in the assay with TK-10 renal, 0.097 µM; in the assay on HCT-116 colon, 0.143 µM; in the assay with NCI-H460 lung, 3.72 µM; in the assay with SNB-19 CNS, 0.107 µM. The results for the GI50 in the assay with SR leukemia and with SF-295 CNS were 1.59 µM and 0.083 µM, respectively. Further, the TGI worked out at 7.84 µM in the assay with NCI/ADR-RES ovarian; 2.29 µM in the assay with M14 melanoma; 0.237 µM in the assay with TK-10 renal; 6.93 µM in the assay with HCT-116 colon; 9.79 µM with NCI-H460 lung; 1.12 µM in the assay with SNB-19 CNS. Moreover, the TGI in the assay with SR leukemia was determined as 15.1 µM; in the assay on SF-295 CNS it was 0.312 µM.

As for `O=C(CCCCCCCCC(=O)N/N=C\c1cc(Cl)ccc1O)N/N=C\c1cc(Cl)ccc1O`, the GI50 with NCI/ADR-RES ovarian is 0.294 µM; in the assay on M14 melanoma, 0.221 µM; in the assay with TK-10 renal, 3.89 µM; in the assay with HCT-116 colon, 0.308 µM; in the assay with NCI-H460 lung, 0.162 µM; with SNB-19 CNS, 0.813 µM. For the same compound, the GI50 with SR leukemia is 0.0955 µM; in the assay with SF-295 CNS, 1.11 µM. Further, the TGI in the assay with M14 melanoma was 8.69 µM; in the assay with TK-10 renal it was above 75.5 µM; in the assay with HCT-116 colon, above 100 µM; in the assay with NCI-H460 lung, 19.6 µM; with SNB-19 CNS, above 100 µM; with SR leukemia, 16.7 µM. Moreover, in the assay on SF-295 CNS, the TGI is above 46.5 µM.

On to `CCCCCCCCCCCCCCCCOCC(O)CO` (stereo not drawn), for which the TGI in the assay on NCI/ADR-RES ovarian worked out at 34.7 µM; in the assay on M14 melanoma it was 58 µM; with TK-10 renal it was 28.9 µM; in the assay on HCT-116 colon, 34.1 µM; in the assay on NCI-H460 lung, 37.7 µM; in the assay on SNB-19 CNS, 52.4 µM. Besides, the TGI with SR leukemia is 28.5 µM; with SF-295 CNS, 30.3 µM.

For the compound `Cn1cc(NC(=O)Nc2cc(C(=O)Nc3cc(C(=O)Nc4cc(S(=O)(=O)O)c5cc(S(=O)(=O)O)cc(S(=O)(=O)O)c5c4)n(C)c3)n(C)c2)cc1C(=O)Nc1cc(C(=O)Nc2cc(S(=O)(=O)O)c3cc(S(=O)(=O)O)cc(S(=O)(=O)O)c3c2)n(C)c1`, the TGI in the assay with NCI/ADR-RES ovarian, with M14 melanoma, in the assay with TK-10 renal, with HCT-116 colon, with NCI-H460 lung and in the assay on SNB-19 CNS was above 100 µM each time. In addition, the TGI in the assay with SR leukemia and with SF-295 CNS was above 100 µM each time.

As for `Cn1cc(C2=C(c3cn(CCCCC(=N)N)c4ccccc34)C(=O)NC2=O)c2ccccc21`, the GI50 is above 25 µM with NCI/ADR-RES ovarian; above 25 µM in the assay on M14 melanoma; above 25 µM in the assay on TK-10 renal; 17.5 µM in the assay on HCT-116 colon; above 23.8 µM with NCI-H460 lung; 21.8 µM with SNB-19 CNS. The GI50 with SR leukemia is 11.1 µM; with SF-295 CNS it was above 13.7 µM. For the same compound, the TGI in the assay with NCI/ADR-RES ovarian, with M14 melanoma, with TK-10 renal, in the assay on HCT-116 colon, in the assay with NCI-H460 lung and with SNB-19 CNS was above 25 µM in each case. Moreover, the TGI in the assay on SR leukemia and with SF-295 CNS was above 25 µM in each case.

Consider `O=C(C=C=Nc1ccccc1)C(=O)N=C=Cc1ccccc1`, for which the GI50 was 2.95 µM in the assay on NCI/ADR-RES ovarian; 2.16 µM in the assay with M14 melanoma; 2.52 µM with TK-10 renal; 1.55 µM in the assay on HCT-116 colon; 14.1 µM in the assay with NCI-H460 lung; 31.6 µM with SNB-19 CNS. The figures for the GI50 in the assay with SR leukemia and in the assay with SF-295 CNS were 0.298 µM and 14.5 µM, respectively. Also, the TGI is 14.7 µM with NCI/ADR-RES ovarian; 6.46 µM with M14 melanoma; 6.83 µM in the assay on TK-10 renal; 3.84 µM in the assay on HCT-116 colon; 44.1 µM in the assay on NCI-H460 lung; above 60.7 µM in the assay with SNB-19 CNS. Further, the TGI in the assay on SR leukemia is above 100 µM; with SF-295 CNS it was 40.9 µM.

As for `COc1cc(-c2cc(=O)c3c(O)c(OC)c(OC)c(OC)c3o2)cc(OC)c1OC`, the TGI in the assay on NCI/ADR-RES ovarian was above 100 µM; in the assay with M14 melanoma it was above 100 µM; in the assay on TK-10 renal it was above 57.6 µM; with HCT-116 colon it was above 44.9 µM; in the assay on NCI-H460 lung, above 100 µM; in the assay on SNB-19 CNS it was above 78.7 µM. For the same compound, the TGI with SR leukemia and in the assay with SF-295 CNS was above 100 µM each time.

In the case of `O=C(/C=C/c1cccc2ccccc12)Nc1ncc(Cc2ccccc2)s1`, the GI50 in the assay on NCI/ADR-RES ovarian was 0.713 µM; in the assay with M14 melanoma it was 0.649 µM; with TK-10 renal it was 1.69 µM; in the assay on HCT-116 colon, 0.46 µM; in the assay on NCI-H460 lung it was 0.861 µM; in the assay on SNB-19 CNS it was 0.971 µM. Moreover, the GI50 in the assay with SR leukemia is 0.866 µM; in the assay with SF-295 CNS, 0.443 µM. Besides, the TGI is above 69.3 µM with NCI/ADR-RES ovarian; 3.79 µM with M14 melanoma; 4.87 µM in the assay with TK-10 renal; 11.6 µM in the assay on HCT-116 colon; 5.19 µM in the assay on NCI-H460 lung; above 100 µM in the assay on SNB-19 CNS. Moreover, the figures for the TGI in the assay on SR leukemia and in the assay on SF-295 CNS were above 100 µM and 2.33 µM, respectively.

In the case of `O=C(Nc1cccc(C(F)(F)F)c1)c1cc2ccccc2cc1O`, the GI50 with NCI/ADR-RES ovarian was 2.17 µM; in the assay on M14 melanoma, 3.26 µM; with TK-10 renal, 3.97 µM; in the assay with HCT-116 colon, 1.15 µM; in the assay on NCI-H460 lung it was 1.41 µM; in the assay with SNB-19 CNS, 1.75 µM. Also, the figures for the GI50 in the assay on SR leukemia and in the assay with SF-295 CNS were 0.533 µM and 2.86 µM, respectively. The TGI in the assay with NCI/ADR-RES ovarian was 9.34 µM; in the assay on M14 melanoma it was 48.7 µM; in the assay with TK-10 renal it was above 41.4 µM; with HCT-116 colon it was 10.1 µM; with NCI-H460 lung, above 44.1 µM; with SNB-19 CNS, above 100 µM. Further, the TGI in the assay on SR leukemia was 12.3 µM; with SF-295 CNS, 8.68 µM.

(Values after PubChem BioAssay (NCI).)
